Data reported in patent US9206156B2, “Substituted indole derivatives” (GRÜNENTHAL GMBH, priority 2008, dated 2015).

Key:
ORL1 receptor = biological target: T1, ORL1 receptor (Homo sapiens, UniProt P41146); assay: ORL1 receptor binding assay with 3H-nociceptin/orphanin FQ (WGA-SPA beads); settings: c=1 μM test substance; 0.5 nM 3H-nociceptin/orphanin FQ; membranes of recombinant CHO-ORL1 cells
T1 construct: expressed in transfected cells; host or cells: CHO (recombinant CHO-ORL1 cells), membranes
T1 sequence (P41146 whole entry): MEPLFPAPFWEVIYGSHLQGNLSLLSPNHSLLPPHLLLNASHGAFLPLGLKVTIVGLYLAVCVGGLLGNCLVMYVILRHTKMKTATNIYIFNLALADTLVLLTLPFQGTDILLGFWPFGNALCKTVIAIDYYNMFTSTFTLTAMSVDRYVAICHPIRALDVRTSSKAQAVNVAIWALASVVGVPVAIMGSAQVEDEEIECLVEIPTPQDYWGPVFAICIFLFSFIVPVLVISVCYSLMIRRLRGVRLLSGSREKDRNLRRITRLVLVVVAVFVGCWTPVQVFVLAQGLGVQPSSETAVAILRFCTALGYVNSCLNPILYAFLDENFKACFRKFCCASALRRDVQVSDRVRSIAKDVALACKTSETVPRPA
Outline: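 Radioligand displacement on membranes from recombinant CHO-ORL1 cells, 0.5 nM 3H-nociceptin/orphanin FQ, 20 μg membrane protein per batch in 50 mM Hepes pH 7.4, 10 mM MgCl2, 1 mM EDTA. Incubated 1 h at room temperature with WGA-SPA beads, scintillation read. Reported as Ki (nM) or % inhibition at 1 μM.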

human μ-opiate receptor = biological target: T2, human μ-opiate receptor (Homo sapiens, UniProt P35372); assay: μ-opiate receptor binding assay with [3H] naloxone (WGA-SPA beads); settings: 1 μmol/l test substance, 1 nmol/l [3H] naloxone, CHO-K1 cell membranes expressing human μ-opiate receptor
T2 construct: purchased NEN, Zaventem, Belgium RB-HOM; host or cells: CHO-K1 cells (membrane preparation)
T2 sequence (P35372 whole entry): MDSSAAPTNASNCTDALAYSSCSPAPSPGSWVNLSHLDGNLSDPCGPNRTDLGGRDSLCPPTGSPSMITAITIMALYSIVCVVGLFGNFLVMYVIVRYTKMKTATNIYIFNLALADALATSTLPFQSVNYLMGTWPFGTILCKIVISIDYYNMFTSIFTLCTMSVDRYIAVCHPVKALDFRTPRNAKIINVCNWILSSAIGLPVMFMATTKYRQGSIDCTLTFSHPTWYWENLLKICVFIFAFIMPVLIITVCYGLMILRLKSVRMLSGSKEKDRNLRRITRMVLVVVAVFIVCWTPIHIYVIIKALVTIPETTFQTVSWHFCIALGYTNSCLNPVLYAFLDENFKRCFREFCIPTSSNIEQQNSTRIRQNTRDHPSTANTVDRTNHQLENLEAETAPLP
Outline: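 CHO-K1 membranes expressing human μ-opiate receptor incubated 90 min at room temperature with 1 nmol/l [3H]naloxone and WGA-SPA beads in 50 mmol/l Tris-HCl with 0.05% azide, 0.06% BSA. Non-specific binding with 25 μmol/l naloxone; % inhibition at 1 μmol/l, or IC50 converted to Ki via Cheng-Prusoff.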

## CN(CCCN1CCC(c2cccs2)(N(C)C)CC1)C(=O)Cc1c[nH]c2cc(F)ccc12 [Example 26, N-(3-(4-(Dimethylamino)-4-(thiophen-2-yl)piperidin-1-yl)propyl)-2-(6-fluoro-1H-indol-3-yl)-N-methylacetamide]
ORL1 receptor
  inhibition at 1 µM: 59%
Human μ-opiate receptor
  inhibition at 1 µM: 88%

## CN(Cc1ccc2cc[nH]c2c1)C(C(=O)N1CCC(c2cccs2)(N(C)C)CC1)c1ccccc1 (centres unmarked) [Example 150, 2-(((1H-indol-6-yl)methyl)(methyl)amino)-1-(4-(dimethylamino)-4-(thiophen-2-yl)pipendin-1-yl)-2-phenylethanone]
ORL1 receptor
  % Inhibition (ORL1) at 1 μM: 76%
Human μ-opiate receptor
  % Inhibition (μ) at 1 μM: 54%

## CN(C)C1(c2ccccc2)CCN(C(=O)C2CCCN(Cc3c[nH]c4ccc(Br)cc34)C2)CC1 (centres unmarked) [Example 155, (1-((5-bromo-1H-indol-3-yl)methyl)piperidin-3-yl)(4-(dimethylamino)-4-phenylpiperidin-1-yl) methanone]
ORL1 receptor
  inhibition at 1 µM: 69%
Human μ-opiate receptor
  inhibition at 1 µM: 89%

## CN(CCCN1CCC(c2ccccc2)(N(C)C)CC1)C(=O)c1cc2cc(F)ccc2[nH]1 [Example 53, N-(3-(4-(Dimethylamino)-4-phenylpiperidin-1-yl)propyl)-5-fluoro-N-methyl-1H-indole-2-carboxamide]
ORL1 receptor
  inhibition at 1 µM: 73%
Human μ-opiate receptor
  inhibition at 1 µM: 90%

## CN(CCN1CCC(c2ccccc2)(N(C)C)CC1)C(=O)c1ccc2ccn(C)c2c1 [Example 119, N-(2-(4-(dimethylamino)-4-phenylpiperidin-1-yl)ethyl)-N,1-dimethyl-1H-indole-6-carboxamide]
ORL1 receptor
  inhibition at 1 µM: 45%
Human μ-opiate receptor
  inhibition at 1 µM: 95%

## CN(C)C1(c2ccccc2)CCN(C(=O)C2CCCN(Cc3c[nH]c4ccccc34)C2)CC1 (centres unmarked) [Example 151, (1-((1H-indol-3-yl)methyl)piperidin-3-yl)(4-(dimethylamino)-4-phenylpiperidin-1-yl)methanone]
ORL1 receptor
  inhibition at 1 µM: 52%
Human μ-opiate receptor
  inhibition at 1 µM: 83%

## CN(C)C1(c2cccs2)CCN(CCNCc2c[nH]c3ccccc23)CC1 [Example 179, 1-(2-((1H-indol-3-yl)methylamino)ethyl)-N,N-dimethyl-4-(thiophen-2-yl)piperidin-4-amine]
ORL1 receptor
  inhibition at 1 µM: 97%
Human μ-opiate receptor
  inhibition at 1 µM: 76%

## CN(C)C1(c2ccccc2)CCN(C(=O)CCNCc2ccc3[nH]ccc3c2)CC1 [Example 142, 3-((1H-indol-5-yl)methylamino)-1-(4-(dimethylamino)-4-phenylpiperidin-1-yl)propan-1-one]
ORL1 receptor
  inhibition at 1 µM: 40%
Human μ-opiate receptor
  inhibition at 1 µM: 78%

## CC(C)C(CC(=O)N1CCCC(C(=O)N2CCC(c3ccccc3)(N(C)C)CC2)C1)c1c[nH]c2ccccc12 (centres unmarked) [Example 106, 1-(3-(4-(dimethylamino)-4-phenylpiperidine-1-carbonyl)piperidin-1-yl)-3-(1H-indol-3-yl)-4-methylpentan-1-one]
ORL1 receptor
  inhibition at 1 µM: 63%
Human μ-opiate receptor
  inhibition at 1 µM: 92%

## Cc1c(CN(C)CCCN2CCC(c3cccs3)(N(C)C)CC2)c2ccccc2n1C [Example 81, 1-(3-(((1,2-Dimethyl-1H-indol-3-yl)methyl)(methyl)amino)propyl)-N,N-dimethyl-4-(thiophen-2-yl)piperidin-4-amine]
ORL1 receptor
  inhibition at 1 µM: 98%
Human μ-opiate receptor
  inhibition at 1 µM: 100%

## CN(C(=O)Cc1c[nH]c2ccc(Br)cc12)C(C(=O)N1CCC(c2cccs2)(N(C)C)CC1)c1ccccc1 (centres unmarked) [Example 100, 2-(5-bromo-1H-indol-3-yl)-N-(2-(4-(dimethylamino)-4-(thiophen-2-yl)piperidin-1-yl)-2-oxo-1-phenylethyl)-N-methylacetamide]
ORL1 receptor
  inhibition at 1 µM: 69%
Human μ-opiate receptor
  inhibition at 1 µM: 95%

## Cc1c(CN(C)CCN2CCC(c3ccccc3)(N(C)C)CC2)c2ccccc2n1C [Example 79, 1-(2-(((1,2-Dimethyl-1H-indol-3-yl)methyl)(methyl)amino)ethyl)-N,N-dimethyl-4-phenylpiperidin-4-amine]
ORL1 receptor
  % Inhibition (ORL1) at 1 μM: 83%
Human μ-opiate receptor; 1 µM
  % Inhibition (μ) at 1 μM: 101%

## COc1ccc2[nH]c(C(=O)N(C)CCCN3CCC(c4ccccc4)(N(C)C)CC3)cc2c1 [Example 66, N-(3-(4-(Dimethylamino)-4-phenylpiperidin-1-yl)propyl)-5-methoxy-N-methyl-1H-indole-2-carboxamide]
ORL1 receptor
  inhibition at 1 µM: 33%
Human μ-opiate receptor
  inhibition at 1 µM: 71%

## COc1ccc2c(CN3CCCC(C(=O)N4CCC(c5ccccc5)(N(C)C)CC4)C3)c(C)n(C)c2c1 (centres unmarked) [Example 176, (4-(dimethylamino)-4-phenylpiperidin-1-yl)(1-((6-methoxy-1,2-dimethyl-1H-indol-3-yl)methyl)piperidin-3-yl)methanone]
ORL1 receptor
  inhibition at 1 µM: 53%
Human μ-opiate receptor
  inhibition at 1 µM: 61%

## CC(C)C(CC(=O)N1CC(C(=O)N2CCC(c3ccccc3)(N(C)C)CC2)c2ccccc21)c1c[nH]c2ccccc12 (centres unmarked) [Example 89, 1-(3-(4-(dimethylamino)-4-phenylpiperidine-1-carbonyl)indolin-1-yl)-3-(1H-indol-3-yl)-4-methylpentan-1-one]
ORL1 receptor
  inhibition at 1 µM: 91%
Human μ-opiate receptor
  inhibition at 1 µM: 94%

## CC(C)C(CC(=O)N(C)CCN1CCC(c2ccccc2)(N(C)C)CC1)c1c[nH]c2ccccc12 (centres unmarked) [Example 87, N-(2-(4-(dimethylamino)-4-phenylpiperidin-1-yl)ethyl)-3-(1H-indol-3-yl)-N,4-dimethylpentanamide]
ORL1 receptor
  % Inhibition (ORL1) at 1 μM: 93%
Human μ-opiate receptor; 1 µM
  % Inhibition (μ) at 1 μM: 102%

## CN(C)C1(c2ccccc2)CCN(C(=O)CCNC(=O)CCc2cn(C)c3ccccc23)CC1 [Example 117, N-(3-(4-(dimethylamino)-4-phenylpiperidin-1-yl)-3-oxopropyl)-3-(1-methyl-1H-indol-3-yl)propanamide]
ORL1 receptor
  inhibition at 1 µM: 48%
Human μ-opiate receptor
  inhibition at 1 µM: 79%

## CN(CCN1CCC(c2ccccc2)(N2CCCC2)CC1)C(=O)C1CCCc2c1[nH]c1ccc(Cl)cc21 (centres unmarked) [Example 42, 6-Chloro-N-methyl-N-(2-(4-phenyl-4-(pyrrolidin-1-yl)piperidin-1-yl)ethyl)-2,3,4,9-tetrahydro-1H-carbazole-1-carboxamide]
ORL1 receptor
  inhibition at 1 µM: 22%
Human μ-opiate receptor
  inhibition at 1 µM: 28%

## COc1ccc2c(c1)c(CNCCN1CCC(c3cccs3)(N(C)C)CC1)c(C)n2Cc1ccccc1 [Example 78, 1-(2-((1-Benzyl-5-methoxy-2-methyl-1H-indol-3-yl)methylamino)ethyl)-N,N-dimethyl-4-(thiophen-2-yl)piperidin-4-amine]
ORL1 receptor
  inhibition at 1 µM: 62%
Human μ-opiate receptor
  inhibition at 1 µM: 93%

## CN(C)C1(c2ccccc2)CCN(C(=O)C2CN(C(=O)c3ccc4ccn(C)c4c3)c3ccccc32)CC1 (centres unmarked) [Example 118, (4-(dimethylamino)-4-phenylpiperidin-1-yl)(1-(1-methyl-1H-indole-6-carbonyl)indolin-3-yl)methanone]
ORL1 receptor
  inhibition at 1 µM: 46%
Human μ-opiate receptor
  inhibition at 1 µM: 97%

## CC(C)c1ccc2c(CN(C)CCN3CCC(c4ccccc4)(N(C)C)CC3)c[nH]c2c1 [Example 180, 1-(2-(((6-isopropyl-1H-indol-3-yl)methyl)(methyl)amino)ethyl)-N,N-dimethyl-4-phenylpiperidin-4-amine]
ORL1 receptor
  inhibition at 1 µM: 96%
Human μ-opiate receptor
  inhibition at 1 µM: 95%

## CN(CCCN1CCC(c2ccccc2)(N(C)C)CC1)C(=O)c1ccc2ccn(C)c2c1 [Example 39, N-(3-(4-(Dimethylamino)-4-phenylpiperidin-1-yl)propyl)-N,1-dimethyl-1H-indole-6-carboxamide]
ORL1 receptor
  inhibition at 1 µM: 32%
Human μ-opiate receptor
  inhibition at 1 µM: 76%

## CN(CCCN1CCC(c2cccs2)(N(C)C)CC1)C(=O)c1cccc2c1ccn2C [Example 30, N-(3-(4-(Dimethylamino)-4-(thiophen-2-yl)piperidin-1-yl)propyl)-N,1-dimethyl-1H-indole-4-carboxamide]
ORL1 receptor
  inhibition at 1 µM: 21%
Human μ-opiate receptor
  inhibition at 1 µM: 78%

## CN(CCCN1CCC(c2cccs2)(N(C)C)CC1)C(=O)c1ccc2ccn(C)c2c1 [Example 28, N-(3-(4-(Dimethylamino)-4-(thiophen-2-yl)piperidin-1-yl)propyl)-N,1-dimethyl-1H-indole-6-carboxamide]
ORL1 receptor
  inhibition at 1 µM: 36%
Human μ-opiate receptor
  inhibition at 1 µM: 88%

## CN(CCN1CCC(c2ccccc2)(N(C)C)CC1)Cc1c[nH]c2ccc(Br)cc12 [Example 185, 1-(2-(((5-bromo-1H-indol-3-yl)methyl)(methyl)amino)ethyl)-N,N-dimethyl-4-phenylpiperidin-4-amine]
ORL1 receptor
  inhibition at 1 µM: 91%
Human μ-opiate receptor
  inhibition at 1 µM: 95%

## CC(C)C(C(=O)N1CCC(c2ccccc2)(N(C)C)CC1)N(C)C(=O)Cc1c[nH]c2cc(F)ccc12 (centres unmarked) [Example 82, N-(1-(4-(dimethylamino)-4-phenylpiperidin-1-yl)-3-methyl-1-oxobutan-2-yl)-2-(6-fluoro-1H-indol-3-yl)-N-methylacetamide]
ORL1 receptor
  inhibition at 1 µM: 97%
Human μ-opiate receptor
  inhibition at 1 µM: 97%

## CN(CCCN1CCC(c2ccccc2)(N(C)C)CC1)C(=O)Cc1c[nH]c2ccc(Br)cc12 [Example 63, 2-(5-Bromo-1H-indol-3-yl)-N-(3-(4-(dimethylamino)-4-phenylpiperidin-1-yl)propyl)-N-methylacetamide]
ORL1 receptor
  inhibition at 1 µM: 41%
Human μ-opiate receptor
  inhibition at 1 µM: 81%

## CN(C(=O)Cc1c[nH]c2cc(F)ccc12)C(C(=O)N1CCC(c2cccs2)(N(C)C)CC1)c1ccccc1 (centres unmarked) [Example 95, N-(2-(4-(dimethylamino)-4-(thiophen-2-yl)piperidin-1-yl)-2-oxo-1-phenylethyl)-2-(6-fluoro-1H-indol-3-yl)-N-methylacetamide]
ORL1 receptor
  inhibition at 1 µM: 82%
Human μ-opiate receptor
  inhibition at 1 µM: 81%
